# Laboratory results as given in PMC4374918, “Interaction of ATP with a Small Heat Shock Protein from Mycobacterium leprae: Effect on Its Structure and Function” (PLoS Neglected Tropical Diseases, 2015).
# Assays:
# [1] = biological target: T1, HSP18 (Mycobacterium leprae, UniProt P12809); assay: SPR (Biacore T200, HSP18 immobilized on CM5 chip); assay type: binding
# T1 construct: recombinant wild-type M. leprae HSP18
# [2] = biological target: T1, HSP18; assay: SPR (Biacore T200, HSP18 immobilized on CM5 chip); also TNP-ATP displacement and thermal stabilization; assay type: binding
# [3] = biological target: T1, HSP18; assay: fluorescence titration, Scatchard analysis; assay type: binding
# [4] = biological target: the molecule itself; assay: dynamic light scattering; HSP18 0.5 mg/ml in 50 mM phosphate buffer pH 7.5, 25°C, with or without 1 mM ATP; hydrodynamic radius of the oligomers
molecule,measurement,setting,value
Nc1ncnc2c1ncn2[C@@H]1O[C@H](CO[P@](=O)(O)O[P@](=O)(O)O[P@@](=O)(O)S)[C@@H](O)[C@H]1O [ATP-γS],Kd,[1],330 nM
Nc1ncnc2c1ncn2[C@@H]1O[C@H](COP(=O)(O)OP(=O)(O)OP(=O)(O)O)[C@@H](O)[C@H]1O [ATP],Kd,[2],590 nM
Nc1ncnc2c1ncn2[C@@H]1O[C@H](COP(=O)(O)OP(=O)(O)OP(=O)(O)O)[C@H]2OC3(O[C@H]21)C([N+](=O)[O-])=CC(=[N+]([O-])[O-])C=C3[N+](=O)[O-] (stereo partly shown) [TNP-ATP],Kd,[3],730 nM
"Mycobacterium leprae HSP18 (18 kDa antigen, small heat shock protein) (natural protein, UniProt P12809 1-148, looked up, M. leprae HSP18 (18 kDa antigen), wild-type; source: recombinant wild-type, expressed and purified as described previously [5]; copies: 29) MLMRTDPFRELDRFAEQVLGTSARPAVMPMDAWREGEEFVVEFDLPGIKADSLDIDIERNVVTVRAERPGVDPDREMLAAERPRGVFNRQLVLGENLDTERILASYQEGVLKLSIPVAERAKPRKISVDRGNNGHQTINKTAHEIIDA",binding result,[4],binds
